Measurements published in patent US20160272617A1, “SUBSTITUTED PHENYLALANINE DERIVATIVES” (BAYER PHARMA AKTIENGESELLSCHAFT, priority 2013, published 2016).
Counter-ions that a name gives are not always drawn.

Assays:
human and animal plasma = assay: Determination of anticoagulatory activity: activated partial thromboplastin time (aPTT) in plasma; details: concentration of test substance which brings about a 1.5-fold extension of the aPTT; plasma species not given
Method in brief: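 Citrated plasma (1:9, 0.11 M citrate; 4000 g, 15 min) from human or animal blood incubated with test compound and cephalin/kaolin PTT reagent for 3 min at 37° C.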

human factor XIa = biological target: T1, human factor XIa (Homo sapiens, UniProt P03951); assay: Measurement of FXIa inhibition (fluorogenic peptide substrate Boc-Glu(OBzl)-Ala-Arg-AMC); type: biochemical; details: factor XIa from Kordia, 15 min preincubation, 30 min at 22° C., fluorescence
T1 construct: purchased Kordia
T1 sequence (P03951 388-625 limits assumed): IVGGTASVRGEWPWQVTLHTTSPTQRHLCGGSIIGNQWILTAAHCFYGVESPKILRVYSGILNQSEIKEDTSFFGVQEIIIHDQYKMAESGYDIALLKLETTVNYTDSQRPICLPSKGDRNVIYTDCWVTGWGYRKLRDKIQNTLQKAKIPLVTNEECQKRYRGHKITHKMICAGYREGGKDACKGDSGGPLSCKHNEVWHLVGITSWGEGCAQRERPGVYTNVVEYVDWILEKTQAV
T1 sequence (P03951 19-387 partner limits assumed): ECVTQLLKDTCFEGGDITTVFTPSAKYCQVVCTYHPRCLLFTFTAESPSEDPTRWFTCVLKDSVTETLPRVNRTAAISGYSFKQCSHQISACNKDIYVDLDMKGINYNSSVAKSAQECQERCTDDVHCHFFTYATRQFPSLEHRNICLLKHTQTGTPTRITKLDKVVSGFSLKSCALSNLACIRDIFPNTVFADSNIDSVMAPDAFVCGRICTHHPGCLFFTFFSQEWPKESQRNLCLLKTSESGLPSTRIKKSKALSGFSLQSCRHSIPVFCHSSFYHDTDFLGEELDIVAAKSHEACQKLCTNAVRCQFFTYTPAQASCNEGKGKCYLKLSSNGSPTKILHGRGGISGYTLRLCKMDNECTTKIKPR
Method in brief: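 Released AMC fluorescence (360/460 nm) read after 30 min at 22 °C. The reaction was started with Boc-Glu(OBzl)-Ala-Arg-AMC (10 μM stock) after a 15 min preincubation of the enzyme (0.45 nM stock) with compound (final 50 μM to 0.00013 μM).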

human plasmin = biological target: T2, human plasmin (Homo sapiens, UniProt P00747); assay: Measurement of plasmin inhibition (fluorogenic peptide substrate MeOSuc-Ala-Phe-Lys-AMC); type: biochemical; details: plasmin from Kordia, 15 min preincubation, 30 min at 22° C., fluorescence
T2 construct: purchased Kordia
T2 sequence (P00747 581-810 limits assumed): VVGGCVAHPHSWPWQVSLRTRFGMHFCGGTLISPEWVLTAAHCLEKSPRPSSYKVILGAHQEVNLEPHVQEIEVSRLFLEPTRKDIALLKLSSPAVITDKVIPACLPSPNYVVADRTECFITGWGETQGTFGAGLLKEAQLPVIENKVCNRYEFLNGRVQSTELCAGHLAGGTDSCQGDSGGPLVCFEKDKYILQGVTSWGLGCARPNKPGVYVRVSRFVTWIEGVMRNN
T2 sequence (P00747 97-580 partner limits assumed): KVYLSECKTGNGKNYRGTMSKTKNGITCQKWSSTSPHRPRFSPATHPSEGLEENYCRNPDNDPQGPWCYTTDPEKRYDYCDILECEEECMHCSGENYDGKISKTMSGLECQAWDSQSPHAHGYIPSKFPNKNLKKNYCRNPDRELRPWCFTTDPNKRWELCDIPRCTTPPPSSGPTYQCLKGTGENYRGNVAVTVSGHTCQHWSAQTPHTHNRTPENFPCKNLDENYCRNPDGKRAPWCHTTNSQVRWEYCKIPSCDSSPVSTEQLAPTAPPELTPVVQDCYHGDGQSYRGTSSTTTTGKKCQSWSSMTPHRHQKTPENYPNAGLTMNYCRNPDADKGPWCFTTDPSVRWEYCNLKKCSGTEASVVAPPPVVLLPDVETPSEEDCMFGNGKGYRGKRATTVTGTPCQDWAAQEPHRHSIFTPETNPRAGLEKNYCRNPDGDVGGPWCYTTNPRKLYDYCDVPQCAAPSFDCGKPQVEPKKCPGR
Method: The plasmin inhibition of the inventive substances is determined using a biochemical test system which utilizes the reaction of a peptidic plasmin substrate to determine the enzymatic activity of human plasmin. Here, plasmin cleaves from the peptic plasmin substrate the C-terminal aminomethylcoumarin (AMC), the fluorescence of which is measured. The determinations are carried out in microtitre plates.
Test substances are dissolved in dimethyl sulphoxide and serially diluted in dimethyl sulphoxide (3000 μM to 0.0078 μM; resulting final concentrations in the test: 50 μM to 0.00013 μM). In each case 1 μl of the diluted substance solutions are placed into the wells of white microtitre plates from Greiner (384 wells). Subsequently, the following are added successively: 20 μl of assay buffer (50 mmol/Tris buffer pH 7.4; 100 mmol/l sodium chloride; 5 mmol/calcium chloride; 0.1% bovine serum albumin) and 20 μl of plasmin from Kordia (0.3 μg/ml in assay buffer) are then added successively. After 15 min of incubation, the enzyme reaction is started by addition of 20 μl of the plasmin substrate MeOSuc-Ala-Phe-Lys-AMC dissolved in assay buffer (150 μM in assay buffer) from Bachem, the mixture is incubated at room temperature (22° C.) for 30 min and fluorescence is then measured (excitation: 360 nm, emission: 460 nm). The measured emissions of the test batches with test substance are compared to those of control batches without test substance (only dimethyl sulphoxide instead of test substance in dimethyl sulphoxide), and the IC50 values are calculated from the concentration/activity relationships.

SMILES | aPTT (human and animal plasma) | IC50 (human factor XIa) | IC50 (human plasmin)
Cc1cc(C(=O)NC(C)C)ccc1-c1ccc(C[C@H](NC(=O)[C@H]2CC[C@H](CN)CC2)C(=O)Nc2cc(Cl)c3[nH]c(=O)[nH]c3c2)cc1 [Example 158, 4′-{(2S)-2-({[trans-4-(Aminomethyl)cyclohexyl]carbonyl}amino)-3-[(7-chloro-2-oxo-2,3-dihydro-1H-benzimidazol-5-yl)amino]-3-oxopropyl}-N-isopropyl-2-methylbiphenyl-4-carboxamide hydrochloride] | 0.1 µmol/L | 3.8 nM | 0.43 nM
CC(C)NC(=O)c1ccc(-c2ccc(C[C@H](NC(=O)[C@H]3CC[C@H](CN)CC3)C(=O)Nc3ccc4[nH]c(=O)[nH]c4c3)cc2)c(Cl)c1 [Example 137, 4′-{(2S)-2-({[trans-4-(Aminomethyl)cyclohexyl]carbonyl}amino)-3-oxo-3-[(2-oxo-2,3-dihydro-1H-benzimidazol-5-yl)amino]propyl}-2-chloro-N-isopropylbiphenyl-4-carboxamide hydrochloride] | 0.07 µmol/L | 11 nM | 2.2 nM
CC(C)NC(=O)c1ccc(-c2ccc(C[C@H](NC(=O)[C@H]3CC[C@H](CN)CC3)C(=O)Nc3cc(F)c4cn[nH]c4c3)cc2)c(Cl)c1 [Example 134, 4′-{(2S)-2-({[trans-4-(Aminomethyl)cyclohexyl]carbonyl}amino)-3-[(4-fluoro-1H-indazol-6-yl)amino]-3-oxopropyl}-2-chloro-N-isopropylbiphenyl-4-carboxamide hydrochloride] | 0.44 µmol/L | 8.9 nM | 0.64 nM
Cc1cc(C(=O)NC2CC2)ccc1-c1ccc(C[C@H](NC(=O)[C@H]2CC[C@H](CN)CC2)C(=O)Nc2ccc3cn[nH]c3c2)cc1 [Example 167, 4′-[(2S)-2-({[trans-4-(Aminomethyl)cyclohexyl]carbonyl}amino)-3-(1H-indazol-6-ylamino)-3-oxopropyl]-N-cyclopropyl-2-methylbiphenyl-4-carboxamide hydrochloride] | 0.12 µmol/L | 6 nM | 1.9 nM
Cc1cc(C(=O)NC(C)C)ccc1-c1ccc(C[C@H](NC(=O)[C@H]2CC[C@H](CN)CC2)C(=O)Nc2ccc(-c3nnc(C(F)(F)C(F)(F)C(=O)O)[nH]3)cc2)cc1 [Example 116, 3-{5-[4-({(2S)-2-({[trans-4-(Aminomethyl)cyclohexyl]carbonyl}amino)-3-[4′-(isopropylcarbamoyl)-2′-methylbiphenyl-4-yl]propanoyl}amino)phenyl]-4H-1,2,4-triazol-3-yl}-2,2,3,3-tetrafluoropropanoic acid hydrochloride] | 0.57 µmol/L | 2 nM | 4.4 nM
Cc1cc(C(=O)NC(C)C)ccc1-c1ccc(C[C@H](NC(=O)[C@H]2CC[C@H](CN)CC2)C(=O)Nc2ccc3nc[nH]c3c2)cc1 [Example 142, 4′-[(2S)-2-({[trans-4-(Aminomethyl)cyclohexyl]carbonyl}amino)-3-(1H-benzimidazol-6-ylamino)-3-oxopropyl]-N-isopropyl-2-methylbiphenyl-4-carboxamide hydrochloride] | 0.33 µmol/L | 15 nM | 2.1 nM
Cc1cc(C(=O)NC(C)C)ccc1-c1ccc(C[C@H](NC(=O)[C@H]2CC[C@H](CN)CC2)C(=O)Nc2ccc(-c3nnc(CCC(=O)O)[nH]3)cc2)cc1 [Example 157, 3-{5-[4-({(2S)-2-({[trans-4-(Aminomethyl)cyclohexyl]carbonyl}amino)-3-[4′-(isopropyl-carbamoyl)-2′-methylbiphenyl-4-yl]propanoyl}amino)phenyl]-4H-1,2,4-triazol-3-yl}propanoic acid hydrochloride] | 0.33 µmol/L | 3.6 nM | 1.7 nM
Cc1cc(C(=O)NC(C)CO)ccc1-c1ccc(C[C@H](NC(=O)[C@H]2CC[C@H](CN)CC2)C(=O)Nc2ccc(-c3nnn[nH]3)cc2)cc1 (stereo partly drawn) [Example 139, 4′-[(2S)-2-({[trans-4-(Aminomethyl)cyclohexyl]carbonyl}amino)-3-oxo-3-{[4-(1H-tetrazol-5-yl)phenyl]amino}propyl]-N-(1-hydroxypropan-2-yl)-2-methylbiphenyl-4-carboxamide hydrochloride] | 0.17 µmol/L | 4.1 nM | 13 nM
Cc1cc(C(=O)NC(C)C)ccc1-c1ccc(C[C@H](NC(=O)[C@H]2CC[C@H](CN)CC2)C(=O)Nc2ccc3c(c2)[nH]c(=O)n3C)cc1 [Example 140, 4′-{(2S)-2-({[trans-4-(Aminomethyl)cyclohexyl]carbonyl}amino)-3-[(1-methyl-2-oxo-2,3-dihydro-1H-benzimidazol-5-yl)amino]-3-oxopropyl}-N-isopropyl-2-methylbiphenyl-4-carboxamide hydrochloride] | 0.25 µmol/L | 13 nM | 1.5 nM
Cc1cc(C(=O)NC2CC2)ccc1-c1ccc(C[C@H](NC(=O)[C@H]2CC[C@H](CN)CC2)C(=O)Nc2ccc3[nH]nnc3c2)cc1 [Example 141, 4′-[(2S)-2-({[trans-4-(Aminomethyl)cyclohexyl]carbonyl}amino)-3-(1H-benzotriazol-5-ylamino)-3-oxopropyl]-N-cyclopropyl-2-methylbiphenyl-4-carboxamide hydrochloride] | 0.30 µmol/L | 3.9 nM | 1.6 nM
CC(NC(=O)c1ccc(-c2ccc(CC(NC(=O)[C@H]3CC[C@H](CN)CC3)C(=O)Nc3ccc(-c4nnn[nH]4)cc3)cc2)c(Cl)c1)C1CC1 (stereo partly drawn) [Example 136, hydrochloride] | 0.29 µmol/L | 1.2 nM | 1.5 nM
Cc1cc(C(=O)NC(C)C)ccc1-c1ccc(C[C@H](NC(=O)[C@H]2CC[C@H](CN)CC2)C(=O)Nc2ccc(-c3nn[nH]n3)c(F)c2)cc1 [Example 96, 4′-[(2S)-2-({[trans-4-(Aminomethyl)cyclohexyl]carbonyl}amino)-3-{[3-fluoro-4-(2H-tetrazol-5-yl)phenyl]amino}-3-oxopropyl]-N-isopropyl-2-methylbiphenyl-4-carboxamide hydrochloride] | 0.5 µmol/L | 1.3 nM | 1.4 nM
Cc1cc(C(=O)NC2CCC2)ccc1-c1ccc(C[C@H](NC(=O)[C@H]2CC[C@H](CN)CC2)C(=O)Nc2ccc3c(=O)[nH][nH]c3c2)cc1 [Example 162, 4′-{(2S)-2-({[trans-4-(Aminomethyl)cyclohexyl]carbonyl}amino)-3-oxo-3-[(3-oxo-2,3-dihydro-1H-indazol-6-yl)amino]propyl}-N-cyclobutyl-2-methylbiphenyl-4-carboxamide hydrochloride] | 0.15 µmol/L | 1.8 nM | 1.1 nM
Cc1cc(C(=O)NC(C)C)ccc1-c1ccc(C[C@H](NC(=O)[C@H]2CC[C@H](CN)CC2)C(=O)Nc2cc(Cl)c3cn[nH]c3c2)cc1 [Example 159, 4′-{(2S)-2-({[trans-4-(Aminomethyl)cyclohexyl]carbonyl}amino)-3-[(4-chloro-1H-indazol-6-yl)amino]-3-oxopropyl}-N-isopropyl-2-methylbiphenyl-4-carboxamide hydrochloride] | 0.36 µmol/L | 3.5 nM | 0.32 nM
Cc1cc(C(=O)NC(C)C)ccc1-c1ccc(C[C@H](NC(=O)[C@H]2CC[C@H](CN)CC2)C(=O)Nc2ccc3c(=O)[nH][nH]c3c2)cc1 [Example 135, 4′-{(2S)-2-({[trans-4-(Aminomethyl)cyclohexyl]carbonyl}amino)-3-oxo-3-[(3-oxo-2,3-dihydro-1H-indazol-6-yl)amino]propyl}-N-isopropyl-2-methylbiphenyl-4-carboxamide hydrochloride] | 0.24 µmol/L | 2.2 nM | 0.96 nM
Cc1cc(C(=O)N[C@@H](C)C(F)(F)F)ccc1-c1ccc(C[C@H](NC(=O)[C@H]2CC[C@H](CN)CC2)C(=O)Nc2ccc3[nH]c(=O)[nH]c3c2)cc1 [Example 133, 4′-{(2S)-2-({[trans-4-(Aminomethyl)cyclohexyl]carbonyl}amino)-3-oxo-3-[(2-oxo-2,3-dihydro-1H-benzimidazol-5-yl)amino]propyl}-2-methyl-N-[(2S)-1,1,1-trifluoropropan-2-yl]biphenyl-4-carboxamide] | 0.1 µmol/L | 6.7 nM | 1.6 nM
